Activity calls are given as the source filed them.
Assays:
[1] = molecular target: G-protein coupled receptor 35 (Homo sapiens, UniProt Q9HC97); assay: GPR35 antagonists blocking zaprinast-driven arrestin recruitment, primary screen, imaging, U2OS, beta-arrestin-GFP, zaprinast agonist (AID 2058); format: functional;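 also: antagonist potency meaning inhibition of agonist-induced arrestin redistribution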
[2] = inhibitors of intracellular T. cruzi replication, confirmation, NIH3T3 host cells, beta-gal luminescence (AID 2044); format: functional, cell-based;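 also: intracellular parasites grown in NIH/3T3 mouse fibroblasts as host cells; luminescent beta-galactosidase reporter signal from transgenic T. cruzi replicating inside host cells; inhibitors lower the luminescence signal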
[3] = molecular target: Voltage-dependent T-type calcium channel subunit alpha-1H (Homo sapiens, UniProt O95180); format: functional;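 also: channel activity triggered by adding a high calcium stimulation buffer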
[4] = cytotoxicity toward NIH3T3 fibroblasts, dose response, counter-screen, cell-based, ATP luminescence, mouse fibroblasts (AID 2010); format: functional;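 also: cells exposed to compound for about 90 hours before reading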
Trypsin = Trypsin (Sus scrofa, UniProt P00761); assay: porcine trypsin inhibitors, dose response, selectivity assay for Rce1 protease inhibitor project, biochemical, quenched peptide fluorescence, cherry-pick (AID 488789)
[5] = molecular target: T1, Voltage-gated N-type calcium channel alpha-1B subunit/Amyloid beta A4 precursor protein-binding family A member 1 (Homo sapiens, UniProt Q00975+Q02410); format: protein assay
[6] = molecular target: T1, Voltage-gated N-type calcium channel alpha-1B subunit/Amyloid beta A4 precursor protein-binding family A member 1; format: protein assay; remark: listed apart in the source
[7] = molecular target: T2, Sphingosine 1-phosphate receptor 4 (Homo sapiens, UniProt O95977); assay: Fluorescence dose response cell-based high throughput screening assay for antagonists of the Sphingosine 1-Phosphate Receptor 4 (S1P4). [Related pubchem assays: 1524 (Confirmation in triplicates.), 1510 (Primary screen.)]; format: functional
T2 sequence (O95977 whole entry): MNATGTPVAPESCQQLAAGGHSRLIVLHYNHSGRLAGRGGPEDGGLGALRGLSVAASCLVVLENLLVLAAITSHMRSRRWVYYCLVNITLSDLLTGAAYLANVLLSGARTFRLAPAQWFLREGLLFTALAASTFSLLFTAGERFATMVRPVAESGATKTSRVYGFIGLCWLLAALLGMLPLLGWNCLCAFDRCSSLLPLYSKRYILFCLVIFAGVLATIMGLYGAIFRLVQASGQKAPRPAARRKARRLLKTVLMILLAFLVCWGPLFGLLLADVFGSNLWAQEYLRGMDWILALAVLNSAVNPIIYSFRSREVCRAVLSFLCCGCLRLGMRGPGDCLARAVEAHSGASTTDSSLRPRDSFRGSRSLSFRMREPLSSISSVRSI

[8] = molecular target: Neurotensin receptor type 1 (Homo sapiens, UniProt P30989); format: functional;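 also: Image-based confirmatory dose-response assay measuring agonist activity at NTR1; NTR1-expressing U2OS osteosarcoma cells imaged for beta-arrestin GFP spot formation; agonist potency where compounds increase beta-arrestin recruitment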
Streptokinase A = molecular target: T3, Streptokinase A (Streptococcus pyogenes serotype M1, UniProt P10520); assay: S. pyogenes streptokinase expression inhibitors, potency, dose response, plasminogen activation absorbance, OD405 (AID 1914); format: functional, Streptococcus pyogenes M1 GAS;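 also: secreted streptokinase activity via plasminogen activation per viability signal from cell pellet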
T3 sequence (P10520 whole entry): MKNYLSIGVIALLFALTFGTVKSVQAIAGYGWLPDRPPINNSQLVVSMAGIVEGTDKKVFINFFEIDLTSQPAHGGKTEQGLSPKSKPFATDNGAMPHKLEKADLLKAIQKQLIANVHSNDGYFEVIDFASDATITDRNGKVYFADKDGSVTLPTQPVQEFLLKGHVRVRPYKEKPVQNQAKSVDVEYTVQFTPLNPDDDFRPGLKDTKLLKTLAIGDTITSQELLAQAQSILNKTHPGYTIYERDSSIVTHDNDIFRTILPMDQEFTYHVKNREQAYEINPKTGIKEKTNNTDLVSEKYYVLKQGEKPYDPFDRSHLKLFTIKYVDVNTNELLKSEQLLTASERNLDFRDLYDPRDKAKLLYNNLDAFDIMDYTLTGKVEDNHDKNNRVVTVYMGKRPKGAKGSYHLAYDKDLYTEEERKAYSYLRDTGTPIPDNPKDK

[9] = molecular target: Sphingosine 1-phosphate receptor 1 (Homo sapiens, UniProt P21453); format: functional;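 also: Tango beta-arrestin reporter U2OS cells stimulated with S1P near its EC80; inhibitor potency meaning antagonism of receptor activation by the natural agonist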
[10] = HepG2 cell cytotoxicity, dose response, cytotoxicity control for Shn3 inhibitor project, CellTiter-Glo, cherry-picked (AID 624134); format: functional, cell-based
[11] = Shn3 3'UTR reporter inhibitors, dose response, cell-based, Clone20 osteoblasts, firefly luciferase, cherry-picked (AID 624132); format: functional;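 also: firefly luciferase luminescence from reporter carrying the Shn3 3'UTR in osteoblasts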
Beta-galactosidase = Beta-galactosidase (Escherichia coli, UniProt Q8VNN2); assay: beta-galactosidase enzyme inhibitors and activators, dose response, artefact control for CCR6 antagonist project, biochemical, E. coli enzyme, set 3 (AID 504712); format: functional
[12] = molecular target: Heat shock protein HSP 90-alpha (Homo sapiens, UniProt P07900); format: functional, organism-based
[13] = control 3'UTR Renilla luciferase suppression, dose response, counter-screen for Shn3 inhibitor project, cell-based, Clone20-Shn3RL, cherry-picked (AID 624133); format: functional
[14] = molecular target: T2, Sphingosine 1-phosphate receptor 4; assay: Late stage fluorescence dose response cell-based screening assay for antagonists of the Sphingosine 1-Phosphate Receptor 4 (S1P4). [Related pubchem assays: 1524 (Confirmation screen (S1P4 antagonists).), 1510 (Primary screen (S1P4 antagonists).), 1853 (Summary AID (S1P4 antagonists).), 1692 (Dose response screen (S1P4 antagonists).)]; format: functional
[15] = test system: Streptococcus sp. 'group A'; assay: growth inhibition of control SK(-) GAS strain, dose response, counter-screen for streptokinase expression inhibitor project, luminescence, kanamycin, BacTiterGlo, confirmation (AID 1900); format: functional, organism-based
[16] = molecular target: T4, Heat shock factor protein 1 (Mus musculus, UniProt P38532); assay: inhibition of MG132-induced HSE-luciferase signal, confirmation, cell-based, NIH3T3, luminescence, dose retest (AID 2382); format: functional;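 also: NIH3T3 fibroblasts with HSF1-driven luciferase reporter stressed by proteasome inhibitor MG132; luminescence from HSF1-driven luciferase expression after 8 hours of MG132 stress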
T4 sequence (P38532 whole entry): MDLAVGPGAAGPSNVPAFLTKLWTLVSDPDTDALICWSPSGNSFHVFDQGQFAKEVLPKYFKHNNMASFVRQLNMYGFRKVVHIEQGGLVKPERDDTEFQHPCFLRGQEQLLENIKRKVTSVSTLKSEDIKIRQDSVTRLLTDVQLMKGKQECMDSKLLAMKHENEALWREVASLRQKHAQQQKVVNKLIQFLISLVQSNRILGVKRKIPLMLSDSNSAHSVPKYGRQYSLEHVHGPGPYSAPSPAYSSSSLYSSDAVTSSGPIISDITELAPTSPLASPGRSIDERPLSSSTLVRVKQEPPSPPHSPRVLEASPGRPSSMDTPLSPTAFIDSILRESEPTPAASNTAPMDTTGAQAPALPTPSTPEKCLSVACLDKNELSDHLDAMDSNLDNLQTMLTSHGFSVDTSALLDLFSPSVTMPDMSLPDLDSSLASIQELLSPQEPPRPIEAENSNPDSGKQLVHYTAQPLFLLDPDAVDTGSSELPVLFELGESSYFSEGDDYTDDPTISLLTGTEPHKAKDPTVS

[17] = microbe, parasite or virus in culture; format: functional; settings: Mycobacterium tuberculosis
Streptococcus = assay: Group A Streptococcus viability loss, dose response, counter-screen for streptokinase expression inhibitor project, luminescence, BacTiterGlo (AID 1915); format: functional, organism-based;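 also: potency for reduction of bacterial viability or growth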

T1 sequence (Q00975 whole entry): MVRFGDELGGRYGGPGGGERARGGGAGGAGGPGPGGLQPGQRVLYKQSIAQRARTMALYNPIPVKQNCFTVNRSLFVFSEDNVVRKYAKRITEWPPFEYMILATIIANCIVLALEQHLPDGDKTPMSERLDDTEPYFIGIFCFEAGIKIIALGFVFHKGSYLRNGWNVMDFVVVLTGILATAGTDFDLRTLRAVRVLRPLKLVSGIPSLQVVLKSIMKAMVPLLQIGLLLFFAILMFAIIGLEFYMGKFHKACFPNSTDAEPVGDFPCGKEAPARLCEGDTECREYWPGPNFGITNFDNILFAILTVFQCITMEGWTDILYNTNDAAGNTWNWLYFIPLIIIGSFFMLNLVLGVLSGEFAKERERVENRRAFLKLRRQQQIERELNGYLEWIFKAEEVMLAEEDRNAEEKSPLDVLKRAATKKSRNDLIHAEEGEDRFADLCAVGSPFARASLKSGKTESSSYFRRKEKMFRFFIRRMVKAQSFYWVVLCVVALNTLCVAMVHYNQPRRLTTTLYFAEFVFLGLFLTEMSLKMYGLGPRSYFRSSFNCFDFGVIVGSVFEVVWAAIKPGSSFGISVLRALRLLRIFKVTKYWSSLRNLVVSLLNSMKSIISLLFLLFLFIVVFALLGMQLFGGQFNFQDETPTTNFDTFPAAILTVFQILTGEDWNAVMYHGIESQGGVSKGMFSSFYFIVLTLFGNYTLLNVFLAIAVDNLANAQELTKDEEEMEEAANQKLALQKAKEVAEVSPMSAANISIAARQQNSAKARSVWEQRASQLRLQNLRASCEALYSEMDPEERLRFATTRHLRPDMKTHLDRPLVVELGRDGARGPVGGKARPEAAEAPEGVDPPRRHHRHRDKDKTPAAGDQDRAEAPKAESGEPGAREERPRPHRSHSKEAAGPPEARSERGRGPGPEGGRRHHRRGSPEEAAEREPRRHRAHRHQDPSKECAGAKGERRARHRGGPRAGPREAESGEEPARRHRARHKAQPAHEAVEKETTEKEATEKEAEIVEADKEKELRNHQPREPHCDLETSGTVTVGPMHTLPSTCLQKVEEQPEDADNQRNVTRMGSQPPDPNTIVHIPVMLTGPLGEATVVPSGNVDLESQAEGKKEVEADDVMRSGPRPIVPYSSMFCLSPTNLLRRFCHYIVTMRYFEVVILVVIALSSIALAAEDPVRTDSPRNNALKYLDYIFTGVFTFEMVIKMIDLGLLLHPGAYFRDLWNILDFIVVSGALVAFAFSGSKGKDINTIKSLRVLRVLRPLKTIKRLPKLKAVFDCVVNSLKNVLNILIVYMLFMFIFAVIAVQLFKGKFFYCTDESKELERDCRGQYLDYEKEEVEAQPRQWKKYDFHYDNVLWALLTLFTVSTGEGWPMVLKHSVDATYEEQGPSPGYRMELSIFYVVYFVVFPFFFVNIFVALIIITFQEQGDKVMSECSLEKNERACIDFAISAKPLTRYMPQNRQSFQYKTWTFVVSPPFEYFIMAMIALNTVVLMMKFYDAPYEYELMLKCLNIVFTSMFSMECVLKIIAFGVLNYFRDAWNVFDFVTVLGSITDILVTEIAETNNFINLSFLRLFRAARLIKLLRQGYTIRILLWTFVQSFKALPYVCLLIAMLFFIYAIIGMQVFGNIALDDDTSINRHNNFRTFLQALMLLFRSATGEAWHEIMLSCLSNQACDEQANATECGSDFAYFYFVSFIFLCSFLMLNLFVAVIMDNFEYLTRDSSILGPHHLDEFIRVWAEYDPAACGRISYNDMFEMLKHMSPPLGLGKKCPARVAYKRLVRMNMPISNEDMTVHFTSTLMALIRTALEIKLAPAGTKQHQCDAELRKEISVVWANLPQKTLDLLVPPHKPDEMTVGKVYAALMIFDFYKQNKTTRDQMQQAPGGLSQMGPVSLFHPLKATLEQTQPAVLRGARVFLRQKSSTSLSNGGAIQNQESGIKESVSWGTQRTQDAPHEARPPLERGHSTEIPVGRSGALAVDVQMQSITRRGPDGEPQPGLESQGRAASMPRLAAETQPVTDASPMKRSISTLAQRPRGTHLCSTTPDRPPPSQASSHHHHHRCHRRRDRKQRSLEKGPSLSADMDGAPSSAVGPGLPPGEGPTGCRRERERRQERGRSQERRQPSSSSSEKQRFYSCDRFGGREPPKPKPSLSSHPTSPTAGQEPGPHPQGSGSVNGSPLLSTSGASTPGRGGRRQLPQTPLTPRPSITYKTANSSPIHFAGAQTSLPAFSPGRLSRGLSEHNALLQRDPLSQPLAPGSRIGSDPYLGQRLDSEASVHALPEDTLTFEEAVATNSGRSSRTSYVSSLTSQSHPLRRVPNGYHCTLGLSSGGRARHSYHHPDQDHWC
T1 sequence (Q02410 whole entry): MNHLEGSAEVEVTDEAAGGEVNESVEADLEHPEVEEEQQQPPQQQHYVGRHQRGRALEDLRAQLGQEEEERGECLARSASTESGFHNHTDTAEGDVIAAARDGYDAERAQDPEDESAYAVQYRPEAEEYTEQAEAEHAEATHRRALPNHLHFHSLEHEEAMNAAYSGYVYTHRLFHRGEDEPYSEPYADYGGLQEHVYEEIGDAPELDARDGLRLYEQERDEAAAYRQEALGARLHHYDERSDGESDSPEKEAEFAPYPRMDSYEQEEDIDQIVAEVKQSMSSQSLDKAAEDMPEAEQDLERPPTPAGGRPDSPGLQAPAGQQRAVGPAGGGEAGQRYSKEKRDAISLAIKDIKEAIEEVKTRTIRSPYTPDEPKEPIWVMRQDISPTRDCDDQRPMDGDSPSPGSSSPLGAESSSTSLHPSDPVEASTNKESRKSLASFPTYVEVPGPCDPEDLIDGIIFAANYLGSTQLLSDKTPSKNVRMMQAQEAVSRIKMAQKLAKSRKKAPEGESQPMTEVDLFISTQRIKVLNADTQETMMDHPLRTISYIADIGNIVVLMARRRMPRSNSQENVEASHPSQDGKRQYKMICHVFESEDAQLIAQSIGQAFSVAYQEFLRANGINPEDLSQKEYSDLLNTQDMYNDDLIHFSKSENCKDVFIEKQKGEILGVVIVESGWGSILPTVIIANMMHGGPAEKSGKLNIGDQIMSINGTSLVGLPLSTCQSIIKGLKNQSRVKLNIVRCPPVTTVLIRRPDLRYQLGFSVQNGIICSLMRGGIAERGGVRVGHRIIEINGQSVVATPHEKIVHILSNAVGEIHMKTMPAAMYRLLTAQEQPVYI
Chain of G-protein coupled receptor 35 (Q9HC97 whole entry): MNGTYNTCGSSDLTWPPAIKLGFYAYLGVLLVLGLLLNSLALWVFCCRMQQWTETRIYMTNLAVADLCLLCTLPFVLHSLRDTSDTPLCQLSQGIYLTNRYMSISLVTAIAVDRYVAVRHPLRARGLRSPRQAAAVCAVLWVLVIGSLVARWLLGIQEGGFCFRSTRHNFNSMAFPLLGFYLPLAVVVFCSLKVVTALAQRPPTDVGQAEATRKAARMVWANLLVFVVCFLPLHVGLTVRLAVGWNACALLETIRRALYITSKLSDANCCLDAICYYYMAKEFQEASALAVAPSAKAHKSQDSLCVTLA
Chain of Trypsin (P00761 whole entry): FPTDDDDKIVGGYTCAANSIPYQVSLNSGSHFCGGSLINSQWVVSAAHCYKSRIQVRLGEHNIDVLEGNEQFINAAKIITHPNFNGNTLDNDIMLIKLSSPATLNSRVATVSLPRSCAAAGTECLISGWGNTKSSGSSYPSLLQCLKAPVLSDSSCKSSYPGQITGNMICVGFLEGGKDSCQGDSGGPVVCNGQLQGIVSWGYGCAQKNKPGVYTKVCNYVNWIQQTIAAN
Chain of Sphingosine 1-phosphate receptor 1 (P21453 whole entry): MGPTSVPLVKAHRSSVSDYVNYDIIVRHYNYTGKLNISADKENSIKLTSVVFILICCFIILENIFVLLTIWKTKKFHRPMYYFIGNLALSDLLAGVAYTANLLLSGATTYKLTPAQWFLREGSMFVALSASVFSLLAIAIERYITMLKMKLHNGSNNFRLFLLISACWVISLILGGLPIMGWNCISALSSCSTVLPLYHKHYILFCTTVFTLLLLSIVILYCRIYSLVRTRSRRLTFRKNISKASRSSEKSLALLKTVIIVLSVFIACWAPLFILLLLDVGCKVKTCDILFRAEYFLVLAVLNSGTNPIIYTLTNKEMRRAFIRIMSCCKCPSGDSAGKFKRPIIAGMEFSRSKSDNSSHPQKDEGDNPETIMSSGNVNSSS
Chain of Neurotensin receptor type 1 (P30989 whole entry): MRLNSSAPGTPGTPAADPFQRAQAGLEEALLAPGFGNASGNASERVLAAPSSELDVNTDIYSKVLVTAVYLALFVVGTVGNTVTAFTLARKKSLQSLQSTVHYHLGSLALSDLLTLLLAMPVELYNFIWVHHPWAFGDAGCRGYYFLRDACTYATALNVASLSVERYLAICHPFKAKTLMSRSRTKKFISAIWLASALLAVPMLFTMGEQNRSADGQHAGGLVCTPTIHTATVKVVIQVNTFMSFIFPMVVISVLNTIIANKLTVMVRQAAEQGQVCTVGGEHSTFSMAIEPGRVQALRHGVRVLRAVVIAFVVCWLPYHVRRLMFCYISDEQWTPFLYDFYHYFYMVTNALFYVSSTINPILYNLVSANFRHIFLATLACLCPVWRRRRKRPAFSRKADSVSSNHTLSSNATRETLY

Structure (SMILES): CCN(CC)c1ccc(/C=C(/C#N)c2nc3cc(C)ccc3[nH]2)c(OC(C)C)c1
- IC50 [1]: 0.557 µM (active)
- EC50 [2]: 0.823 µM (active)
- EC50 [3]: 1.62 µM (active)
- EC50 [4]: > 60 µM (not active)

Structure (SMILES): COc1ccc(-c2oc3ccc(N4CCOCC4)cc3c2/C=C/c2ccc(OC)c(OC)c2)cc1
- AC50 (Trypsin): 2.77 µM (active)

Structure (SMILES): N#CC1=C([S-])NC(=O)[C@H]([n+]2ccccc2)[C@H]1c1ccc(Cl)cc1
- IC50 [5]: > 56.8 µM (not active)
- IC50 [6]: > 50 µM (inactive)

Structure (SMILES): CCOc1cc(/C=C\[N+](=O)[O-])ccc1OCC(=O)Nc1ccccc1C
- IC50 [7]: 0.913 µM (active)
- EC50 [8]: 9.86 µM (active)
- EC50 (Streptokinase A): 4.73 µM (active)
- IC50 [9]: 18.8 µM (not active)
- AC50 [10]: 22.5 µM (active)
- AC50 [11]: < 0.26 µM (active)
- IC50 (Beta-galactosidase): > 66.6 µM (inactive)
- AC50 [12]: 3.66 µM (active)
- AC50 [13]: 4.63 µM (active)
- IC50 [14]: 1.8 µM (not active)
- EC50 [15]: 7.34 µM (active)
- EC50 [16]: 5.09 µM (active)
- CC50 [17]: > 40 µM (active)
- EC50 (Streptococcus): 12.3 µM (active)

Source: ChEMBL document CHEMBL1201862, “PubChem BioAssay data set” (2004)
